A short description of one series: Solubility at pH 6.8. The class given is physicochemical. Particulars: pH 6.8, aqueous buffer, thermodynamic from solid; read-out: solubility. Put shortly: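 Solubility was measured at pH 6.8 following the cited Zhou et al. (2007) procedure.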
For a further series, the target named is T1, PI3K alpha (Homo sapiens, UniProt P42336).
T1 construct: p85(iSH2) fusion partner (see partner chain) (N); His tag (C); made in house; host or cells: baculovirus; Tn5 (Trichoplusia ni) or TiniPro insect cells
Description: PI3K alpha kinase assay (Kinase-Glo luminescence). The class given is biochemical. Put shortly:
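Enzyme 10 nM PI3Kα EMV B1075; ATP 1 μM; PI 10 μg/mL; Tris-HCl pH 7.5 10 mM, MgCl2 3 mM, NaCl 50 mM, CHAPS 0.05%, DTT 1 mM; 60 min RT; Kinase-Glo luminescence; 4-parameter IC50 fit, 8 concentrations, single points.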
On the technique in general: Kinase-Glo reads ATP consumption through a luciferase reaction.

A further series addresses T2, PI3K beta (Homo sapiens, UniProt P42338).
T2 construct: for the full-length p110-b subunit are generated and fused by overlapping PCR; p85(iSH2) fusion partner (see partner chain) (N); His tag (C); made in house; host or cells: baculovirus; Tn5 (Trichoplusia ni) or TiniPro insect cells
Description: PI3K beta kinase assay (Kinase-Glo luminescence). In kind it is biochemical. Put shortly:
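Enzyme: BV949 p85(iSH2)-Gly linker-p110β FL-His, 25 nM. Substrate: PI 10 μg/mL. ATP: 1 μM, added to start. Buffer: Tris pH 7.5 10 mM, MgCl2 3 mM, NaCl 50 mM, CHAPS 0.05%, DTT 1 mM. RT, 60 min. Readout: Kinase-Glo. IC50 by 4-parameter fit.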

The next series concerns the target T3, PI3K delta (Homo sapiens, UniProt O00329).
T3 construct: for the full-length p110-d subunit are generated and fused by overlapping PCR; p85(iSH2) fusion partner (see partner chain) (N); His tag (C); made in house; host or cells: baculovirus; Tn5 (Trichoplusia ni) or TiniPro insect cells
Description: PI3K delta kinase assay (Kinase-Glo luminescence). The class given is biochemical. Put shortly: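 Lipid kinase activity of a His-tagged p110δ full-length/p85 iSH2 fusion (10 nM) toward bovine liver phosphatidylinositol (10 μg/mL) at 1 μM ATP, pH 7.5, 60 min, room temperature. ATP consumption is quantified by luciferase-based luminescence. Four-parameter logistic fitting gives IC50.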

A further series addresses T4, mTOR (Homo sapiens, UniProt P42345).
T4 construct: purchased Invitrogen Corporation (Carlsbad/CA, USA) PV4753
Description: Biochemical assay for m-TOR by TR-FRET. The settings on record: 8 μM ATP, 400 nM GFP-4EBP1, 0.5 nM mTOR. The procedure, abridged: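 Steps: ATP (8 μM final) plus GFP-4EBP1 (400 nM final) combined with mTOR (0.5 nM final), incubated at rt; buffer HEPES pH 7.5 with 10 mM MnCl2, NaCl, EGTA, DTT. Then stopped with EDTA/Tb3+-anti-p4EBP1 pT46 Ab (0.5 nM). Plates read after 15 min.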
For orientation: In TR-FRET formats the signal depends on donor and acceptor labels being close together.

This is an account of results in patent publication US20140005163A1 (NOVARTIS AG, priority 2010, published 2014).

In brackets after ≈: the same amount, converted by molar mass. Where only a bound is given, the exact number is not on record here.

T1 sequence (P42336 with tags, fused parts or gaps limits assumed): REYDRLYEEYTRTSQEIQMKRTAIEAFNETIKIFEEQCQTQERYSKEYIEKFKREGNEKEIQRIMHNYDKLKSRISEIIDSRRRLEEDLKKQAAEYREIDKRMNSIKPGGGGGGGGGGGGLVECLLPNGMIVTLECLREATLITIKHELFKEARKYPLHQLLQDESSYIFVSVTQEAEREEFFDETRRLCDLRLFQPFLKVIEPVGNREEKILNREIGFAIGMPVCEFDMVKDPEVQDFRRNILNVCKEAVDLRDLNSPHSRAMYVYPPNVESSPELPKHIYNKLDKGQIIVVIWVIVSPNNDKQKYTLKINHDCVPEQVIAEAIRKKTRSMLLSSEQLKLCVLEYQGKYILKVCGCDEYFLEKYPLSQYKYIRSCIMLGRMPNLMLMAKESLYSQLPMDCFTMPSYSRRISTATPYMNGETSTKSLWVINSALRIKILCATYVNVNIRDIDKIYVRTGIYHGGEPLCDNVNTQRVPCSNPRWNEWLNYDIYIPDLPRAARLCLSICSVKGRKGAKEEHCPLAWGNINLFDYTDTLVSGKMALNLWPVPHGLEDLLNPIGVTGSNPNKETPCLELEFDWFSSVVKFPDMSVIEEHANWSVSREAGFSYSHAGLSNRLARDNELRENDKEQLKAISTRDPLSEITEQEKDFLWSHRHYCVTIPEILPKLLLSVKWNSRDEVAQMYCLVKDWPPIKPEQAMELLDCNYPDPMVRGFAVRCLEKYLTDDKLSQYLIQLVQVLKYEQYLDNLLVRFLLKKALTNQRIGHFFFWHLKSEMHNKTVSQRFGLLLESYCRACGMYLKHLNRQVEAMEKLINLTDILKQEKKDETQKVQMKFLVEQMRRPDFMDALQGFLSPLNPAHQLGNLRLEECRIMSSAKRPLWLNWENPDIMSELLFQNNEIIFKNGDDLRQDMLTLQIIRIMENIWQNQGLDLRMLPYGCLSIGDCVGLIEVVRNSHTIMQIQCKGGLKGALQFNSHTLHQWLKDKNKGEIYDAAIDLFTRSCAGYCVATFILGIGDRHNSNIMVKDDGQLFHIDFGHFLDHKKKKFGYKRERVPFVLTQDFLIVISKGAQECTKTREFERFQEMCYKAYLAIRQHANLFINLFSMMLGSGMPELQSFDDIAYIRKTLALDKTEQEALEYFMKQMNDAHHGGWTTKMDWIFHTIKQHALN
T4 sequence (P42345 1360-2549 limits assumed): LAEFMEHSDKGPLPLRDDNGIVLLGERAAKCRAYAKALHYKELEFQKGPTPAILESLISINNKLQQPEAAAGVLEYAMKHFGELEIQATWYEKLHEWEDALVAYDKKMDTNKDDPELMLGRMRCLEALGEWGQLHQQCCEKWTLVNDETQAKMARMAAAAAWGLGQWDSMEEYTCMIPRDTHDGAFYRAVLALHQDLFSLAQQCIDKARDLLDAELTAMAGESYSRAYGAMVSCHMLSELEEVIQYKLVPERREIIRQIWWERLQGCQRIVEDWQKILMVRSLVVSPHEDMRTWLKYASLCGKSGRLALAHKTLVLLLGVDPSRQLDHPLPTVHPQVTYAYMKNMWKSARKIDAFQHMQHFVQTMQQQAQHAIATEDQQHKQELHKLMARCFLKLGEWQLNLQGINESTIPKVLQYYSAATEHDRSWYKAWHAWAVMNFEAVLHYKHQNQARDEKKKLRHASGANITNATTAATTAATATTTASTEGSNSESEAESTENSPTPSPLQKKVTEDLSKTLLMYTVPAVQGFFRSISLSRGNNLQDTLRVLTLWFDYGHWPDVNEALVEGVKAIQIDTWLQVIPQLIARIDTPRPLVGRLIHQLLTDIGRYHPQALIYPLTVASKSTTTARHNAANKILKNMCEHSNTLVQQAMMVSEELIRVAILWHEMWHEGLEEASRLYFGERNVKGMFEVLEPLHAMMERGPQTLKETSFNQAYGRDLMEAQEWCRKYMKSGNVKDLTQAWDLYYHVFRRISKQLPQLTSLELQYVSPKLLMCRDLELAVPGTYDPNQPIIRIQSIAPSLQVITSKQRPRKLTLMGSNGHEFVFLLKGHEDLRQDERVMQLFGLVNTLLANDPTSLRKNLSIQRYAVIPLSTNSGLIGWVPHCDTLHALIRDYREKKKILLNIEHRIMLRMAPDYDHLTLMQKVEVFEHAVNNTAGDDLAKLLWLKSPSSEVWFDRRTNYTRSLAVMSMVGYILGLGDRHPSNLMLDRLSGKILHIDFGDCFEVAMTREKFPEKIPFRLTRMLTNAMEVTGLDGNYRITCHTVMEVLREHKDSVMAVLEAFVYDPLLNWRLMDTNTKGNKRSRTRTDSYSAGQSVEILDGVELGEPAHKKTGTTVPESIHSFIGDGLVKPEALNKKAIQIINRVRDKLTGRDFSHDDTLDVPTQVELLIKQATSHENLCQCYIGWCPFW
T2 sequence (P42338 with tags, fused parts or gaps limits assumed): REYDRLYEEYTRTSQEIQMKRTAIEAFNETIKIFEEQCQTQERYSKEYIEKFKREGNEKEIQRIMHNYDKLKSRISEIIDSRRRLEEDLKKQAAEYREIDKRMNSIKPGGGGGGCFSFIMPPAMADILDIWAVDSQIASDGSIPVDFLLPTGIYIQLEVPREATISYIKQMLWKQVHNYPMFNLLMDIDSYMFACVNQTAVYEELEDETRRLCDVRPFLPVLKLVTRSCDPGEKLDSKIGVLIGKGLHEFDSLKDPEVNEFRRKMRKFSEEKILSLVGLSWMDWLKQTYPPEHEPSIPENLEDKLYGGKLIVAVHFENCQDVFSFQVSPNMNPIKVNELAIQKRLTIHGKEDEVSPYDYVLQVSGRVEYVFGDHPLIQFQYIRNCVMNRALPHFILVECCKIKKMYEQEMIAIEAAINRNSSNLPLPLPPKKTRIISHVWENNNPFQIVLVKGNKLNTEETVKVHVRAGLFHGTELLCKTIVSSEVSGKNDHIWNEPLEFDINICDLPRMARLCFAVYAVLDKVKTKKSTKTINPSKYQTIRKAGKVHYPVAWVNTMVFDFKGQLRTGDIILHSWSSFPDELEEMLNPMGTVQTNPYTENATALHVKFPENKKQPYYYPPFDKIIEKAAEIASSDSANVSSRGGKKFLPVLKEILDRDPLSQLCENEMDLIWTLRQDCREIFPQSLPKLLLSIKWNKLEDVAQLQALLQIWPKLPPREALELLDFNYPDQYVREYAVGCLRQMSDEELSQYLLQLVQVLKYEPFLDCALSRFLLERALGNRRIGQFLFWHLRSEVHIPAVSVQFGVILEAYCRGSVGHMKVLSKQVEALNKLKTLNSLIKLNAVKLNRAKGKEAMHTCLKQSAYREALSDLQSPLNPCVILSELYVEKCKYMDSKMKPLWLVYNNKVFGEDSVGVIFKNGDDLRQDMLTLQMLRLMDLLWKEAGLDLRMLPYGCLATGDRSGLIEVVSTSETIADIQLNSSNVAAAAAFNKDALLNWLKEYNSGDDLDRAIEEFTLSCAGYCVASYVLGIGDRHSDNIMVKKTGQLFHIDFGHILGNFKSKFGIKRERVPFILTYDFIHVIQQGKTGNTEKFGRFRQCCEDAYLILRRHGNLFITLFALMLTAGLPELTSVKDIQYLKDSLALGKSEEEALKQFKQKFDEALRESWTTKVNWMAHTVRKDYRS
T3 sequence (O00329 with tags, fused parts or gaps limits assumed): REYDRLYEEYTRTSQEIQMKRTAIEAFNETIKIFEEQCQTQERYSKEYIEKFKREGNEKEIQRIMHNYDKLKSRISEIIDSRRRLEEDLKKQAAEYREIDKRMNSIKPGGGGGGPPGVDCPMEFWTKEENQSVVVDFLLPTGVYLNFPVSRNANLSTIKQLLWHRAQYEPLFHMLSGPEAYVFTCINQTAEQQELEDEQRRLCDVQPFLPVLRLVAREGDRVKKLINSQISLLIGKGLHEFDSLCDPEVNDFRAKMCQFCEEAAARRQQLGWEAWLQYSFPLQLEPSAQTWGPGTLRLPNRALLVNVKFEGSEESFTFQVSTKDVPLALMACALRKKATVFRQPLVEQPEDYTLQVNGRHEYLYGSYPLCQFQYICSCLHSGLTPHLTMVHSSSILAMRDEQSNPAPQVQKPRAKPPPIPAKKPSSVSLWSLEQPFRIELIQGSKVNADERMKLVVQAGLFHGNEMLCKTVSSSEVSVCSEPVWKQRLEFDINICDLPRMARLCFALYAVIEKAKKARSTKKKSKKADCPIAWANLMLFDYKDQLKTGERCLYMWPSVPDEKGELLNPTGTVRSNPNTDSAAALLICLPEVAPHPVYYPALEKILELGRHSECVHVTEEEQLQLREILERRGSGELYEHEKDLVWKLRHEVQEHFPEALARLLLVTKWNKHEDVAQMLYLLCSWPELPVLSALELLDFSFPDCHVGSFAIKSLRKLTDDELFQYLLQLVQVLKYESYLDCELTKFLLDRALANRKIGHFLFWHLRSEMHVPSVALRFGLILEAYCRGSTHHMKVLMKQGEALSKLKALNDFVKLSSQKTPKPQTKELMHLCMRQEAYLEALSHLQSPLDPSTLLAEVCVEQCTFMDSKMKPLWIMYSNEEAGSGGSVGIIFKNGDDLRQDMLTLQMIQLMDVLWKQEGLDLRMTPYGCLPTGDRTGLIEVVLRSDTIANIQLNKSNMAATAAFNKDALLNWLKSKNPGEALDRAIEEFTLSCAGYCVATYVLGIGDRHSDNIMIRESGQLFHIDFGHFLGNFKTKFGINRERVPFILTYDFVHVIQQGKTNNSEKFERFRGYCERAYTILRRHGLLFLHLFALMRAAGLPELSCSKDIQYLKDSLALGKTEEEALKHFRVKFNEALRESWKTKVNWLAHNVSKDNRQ

The solubility is the concentration that dissolves in the medium under given conditions. The IC50 is the concentration that gives 50% inhibition. Consider `Cc1nn(C)cc1-n1c(=O)n(C)c2cnc3ccc(-c4cncc(N5CCOCC5)c4)cc3c21` [Example 175.1, 1-(1,3-Dimethyl-1H-pyrazol-4-yl)-3-methyl-8-(5-morpholin-4-yl-pyridin-3-yl)-1,3-dihydro-imidazo[4,5-c]quinolin-2-one], for which the solubility in “Solubility at pH 6.8” was 35 µg/mL (≈ 76.8 µM). In addition, the IC50 on PI3K alpha worked out at 66 nM; at PI3K beta, 180 nM; on PI3K delta, 70 nM; at mTOR, 6 nM.

Turning to `COC(=O)c1ccc(-c2ccc3ncc4c(c3c2)n(-c2cn(C)nc2C)c(=O)n4C)cn1` [Example 100, 5-[1-(1,3-Dimethyl-1H-pyrazol-4-yl)-3-methyl-2-oxo-2,3-dihydro-1H-imidazo[4,5-c]quinolin-8-yl]-pyridine-2-carboxylic acid methyl ester], in the series “Solubility at pH 6.8”, the solubility was found to be 12 µg/mL (≈ 28 µM). Moreover, the IC50 came out at 18 nM on PI3K alpha, 140 nM on PI3K beta, 94 nM on PI3K delta and 6 nM at mTOR.

Consider `Cc1nn(C)c(C)c1-n1c(=O)n(C)c2cnc3ccc(-c4cnc(N)c(Cl)c4)cc3c21` [Example 148.1, 8-(6-Amino-5-chloro-pyridin-3-yl)-3-methyl-1-(1,3,5-trimethyl-1H-pyrazol-4-yl)-1,3-dihydro-imidazo[4,5-c]quinolin-2-one], for which the solubility in the series “Solubility at pH 6.8” was determined as 92 µg/mL (≈ 212 µM). The IC50 at PI3K alpha amounted to 26 nM; on PI3K beta, 51 nM; on PI3K delta, 21 nM; at mTOR it was 95 nM.

As for `Cc1cc(-n2c(=O)n(C)c3cnc4ccc(-c5ccc(N(C)C)nc5)cc4c32)n(C)n1` [Example 4.6, 8-(6-Dimethylamino-pyridin-3-yl)-1-(2,5-dimethyl-2H-pyrazol-3-yl)-3-methyl-1,3-dihydro-imidazo[4,5-c]quinolin-2-one], the solubility in the series “Solubility at pH 6.8” stood at 6 µg/mL (≈ 14.5 µM). The IC50 came out at 48 nM on PI3K alpha, 336 nM at PI3K beta, 91 nM on PI3K delta and 42 nM on mTOR.

For `Cc1nn(C)cc1-n1c(=O)n(C)c2cnc3ccc(-c4cncc(NC5CCC5)c4)cc3c21` [Example 172, 8-(5-Cyclobutylamino-pyridin-3-yl)-1-(1,3-dimethyl-1H-pyrazol-4-yl)-3-methyl-1,3-dihydro-imidazo[4,5-c]quinolin-2-one], the solubility in “Solubility at pH 6.8” was 11 µg/mL (≈ 25 µM). Moreover, the IC50 on PI3K alpha was 39 nM; on PI3K beta, 146 nM; on PI3K delta, 33 nM; on mTOR it was below 3 nM.

Regarding `CCN(C)c1cc(-c2ccc3ncc4c(c3c2)n(-c2cn(C)nc2C)c(=O)n4C)cnc1C` [Example 165, 1-(1,3-Dimethyl-1H-pyrazol-4-yl)-8-[5-(ethyl-methyl-amino)-6-methyl-pyridin-3-yl]-3-methyl-1,3-dihydro-imidazo[4,5-c]quinolin-2-one], the solubility in the series “Solubility at pH 6.8” was above 442 µg/mL. Besides, the half-maximal inhibitory concentration (IC50) was 7 nM at PI3K alpha, 25 nM at PI3K beta, 4 nM at PI3K delta and below 3 nM at mTOR.

For the compound `COc1ccc(-c2ccc3ncc4c(c3c2)n(-c2cc(C)nn2C)c(=O)n4C)cc1OC` [Example 1.4, 8-(3,4-Dimethoxy-phenyl)-1-(2,5-dimethyl-2H-pyrazol-3-yl)-3-methyl-1,3-dihydro-imidazo[4,5-c]quinolin-2-one], the solubility in the series “Solubility at pH 6.8” was determined as 4 µg/mL (≈ 9.31 µM). Besides, the IC50 was found to be 39 nM at PI3K alpha, 378 nM at PI3K beta, 83 nM at PI3K delta and 87 nM at mTOR.

Regarding `CCOc1cc(-c2ccc3ncc4c(c3c2)n(-c2cn(C(C)C)nc2C)c(=O)n4C)cnc1COC` [Example 197.2, 8-(5-Ethoxy-6-methoxymethyl-pyridin-3-yl)-1-(1-isopropyl-3-methyl-1H-pyrazol-4-yl)-3-methyl-1,3-dihydro-imidazo[4,5-c]quinolin-2-one], the solubility in “Solubility at pH 6.8” is 225 µg/mL (≈ 462 µM). Also, the IC50 on PI3K alpha came out at 41 nM; at PI3K beta, 103 nM; on PI3K delta it was 24 nM; on mTOR it was 107 nM.

As for `Cc1nn(C(C)C)cc1-n1c(=O)n(C)c2cnc3ccc(-c4cnc(N)c(CO)c4)cc3c21` [Example 169.1, 8-(6-Amino-5-hydroxymethyl-pyridin-3-yl)-1-(1-isopropyl-3-methyl-1H-pyrazol-4-yl)-3-methyl-1,3-dihydro-imidazo[4,5-c]quinolin-2-one], the solubility in the series “Solubility at pH 6.8” was 289 µg/mL (≈ 652 µM). Moreover, the IC50 on PI3K alpha is 24 nM; on PI3K beta, 87 nM; at PI3K delta it was 22 nM; at mTOR, below 3 nM.

`COc1ncc(-c2ccc3ncc4c(c3c2)n(-c2cn(C)nc2C)c(=O)n4C)cc1N` [Example 127, 8-(5-Amino-6-methoxy-pyridin-3-yl)-1-(1,3-dimethyl-1H-pyrazol-4-yl)-3-methyl-1,3-dihydro-imidazo[4,5-c]quinolin-2-one]: the solubility in the series “Solubility at pH 6.8” stood at 386 µg/mL (≈ 929 µM). Besides, the IC50 was determined as 20 nM at PI3K alpha, 44 nM at PI3K beta, 9 nM on PI3K delta and 5 nM at mTOR.

On to `CCOc1cncc(-c2ccc3ncc4c(c3c2)n(-c2cn(CC(=O)N(C)C)nc2C)c(=O)n4C)c1` [Example 56.2, 2-{4-[8-(5-Ethoxy-pyridin-3-yl)-3-methyl-2-oxo-2,3-dihydro-imidazo[4,5-c]quinolin-1-yl]-3-methyl-pyrazol-1-yl}-N,N-dimethyl-acetamide], for which, in the series “Solubility at pH 6.8”, the solubility was above 486 µg/mL. The IC50 at PI3K alpha was 25 nM; at PI3K beta, 317 nM; at PI3K delta it was 121 nM; at mTOR it was 52 nM.

Regarding `Cn1cc(-n2c(=O)n(C)c3cnc4ccc(-c5ccc(CO)nc5)cc4c32)c(Cl)n1` [Example 16.5, 1-(3-chloro-1-methyl-1H-pyrazol-4-yl)-8-(6-hydroxymethyl-pyridin-3-yl)-3-methyl-1,3-dihydro-imidazo[4,5-c]quinolin-2-one], the solubility in “Solubility at pH 6.8” was determined as 15 µg/mL (≈ 35.6 µM). In addition, the IC50 at PI3K alpha is 3 nM; at PI3K beta, 28 nM; at PI3K delta it was 3 nM; at mTOR, 6 nM.

Regarding `Cc1ncc(-c2ccc3ncc4c(c3c2)n(-c2cn(C)nc2C)c(=O)n4C)cc1NS(C)(=O)=O` [Example 76, N-{5-[1-(1,3-Dimethyl-1H-pyrazol-4-yl)-3-methyl-2-oxo-2,3-dihydro-1H-imidazo[4,5-c]quinolin-8-yl]-2-methyl-pyridin-3-yl}-methanesulfonamide], in the series “Solubility at pH 6.8”, the solubility is 13 µg/mL (≈ 27.2 µM). Also, the IC50 at PI3K alpha amounted to 6 nM; on PI3K beta, 10 nM; at PI3K delta, 3 nM; at mTOR, 5 nM.

In the case of `COCc1ccc(-c2ccc3ncc4c(c3c2)n(-c2cn(C(C)C)nc2C)c(=O)n4C)cn1` [Example 105, 1-(1-Isopropyl-3-methyl-1H-pyrazol-4-yl)-8-(6-methoxymethyl-pyridin-3-yl)-3-methyl-1,3-dihydro-imidazo[4,5-c]quinolin-2-one], in the series “Solubility at pH 6.8”, the solubility was above 443 µg/mL. For the same compound, the IC50 at PI3K alpha stood at 110 nM; on PI3K beta, 163 nM; on PI3K delta, 52 nM; at mTOR, 95 nM.

For `CCOc1ccc(-c2ccc3ncc4c(c3c2)n(-c2cn(CC)nc2C)c(=O)n4C)cc1OC` [Example 29.1, 8-(4-Ethoxy-3-methoxy-phenyl)-1-(1-ethyl-3-methyl-1H-pyrazol-4-yl)-3-methyl-1,3-dihydro-imidazo[4,5-c]quinolin-2-one], the solubility in the series “Solubility at pH 6.8” turned out to be 3 µg/mL (≈ 6.56 µM). For the same compound, the IC50 at PI3K alpha amounted to 24 nM; at PI3K beta, 57 nM; on PI3K delta it was 27 nM; at mTOR, 26 nM.
